Earlier results, collected in patent publication US7867716B2 (priority 2004, dated 2011).

What was measured:
WT-αHL = WT-αHL (Staphylococcus aureus, UniProt P09616)
glucoamylase = glucoamylase (Aspergillus niger, UniProt P69328)
glucoamylase, sequence (P69328 25-640 limits assumed): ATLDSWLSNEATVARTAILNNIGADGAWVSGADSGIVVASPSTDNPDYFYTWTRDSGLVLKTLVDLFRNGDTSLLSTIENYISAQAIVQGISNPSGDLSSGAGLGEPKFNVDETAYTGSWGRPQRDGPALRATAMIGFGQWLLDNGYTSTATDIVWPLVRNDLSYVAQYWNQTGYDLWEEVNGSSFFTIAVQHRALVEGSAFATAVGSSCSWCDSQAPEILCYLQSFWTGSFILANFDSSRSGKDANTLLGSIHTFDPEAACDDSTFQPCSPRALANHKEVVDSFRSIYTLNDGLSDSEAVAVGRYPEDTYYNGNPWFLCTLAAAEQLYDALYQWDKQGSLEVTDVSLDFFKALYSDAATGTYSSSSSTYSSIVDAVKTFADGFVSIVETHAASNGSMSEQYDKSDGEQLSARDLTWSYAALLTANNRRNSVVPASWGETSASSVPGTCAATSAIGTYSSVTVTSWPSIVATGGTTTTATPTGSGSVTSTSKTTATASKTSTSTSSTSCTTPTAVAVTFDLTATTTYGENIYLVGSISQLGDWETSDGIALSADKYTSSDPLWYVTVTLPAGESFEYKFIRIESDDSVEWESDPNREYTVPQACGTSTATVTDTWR

WT-αHL, sequence (P09616 27-319 limits assumed): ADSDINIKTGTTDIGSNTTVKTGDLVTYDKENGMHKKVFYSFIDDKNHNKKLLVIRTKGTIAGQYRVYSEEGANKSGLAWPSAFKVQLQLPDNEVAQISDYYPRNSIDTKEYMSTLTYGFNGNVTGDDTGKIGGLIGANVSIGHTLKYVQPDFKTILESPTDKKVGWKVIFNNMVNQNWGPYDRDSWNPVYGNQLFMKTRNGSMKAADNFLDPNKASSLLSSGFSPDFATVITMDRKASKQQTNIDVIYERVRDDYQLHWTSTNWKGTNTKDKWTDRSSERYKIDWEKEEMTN

β-cyclodextrin [βCD]
Kf (trans) (WT-αHL): 300 M⁻¹
formation constant Kf for WT-αHL with βCD (WT-αHL): 290 M⁻¹
ΔS° (glucoamylase): −90 J mol^−1 K^−1
